Experimental data from patent US8765690B2, “Treatment of cancer with glufosfamide in patients not receiving insulin therapy” (Threshold Pharmaceuticals, Inc., priority 2007, dated 2014).
Several values for one entry are separate records, joined by “and”; a condition that tells them apart may be missing. Equal entries are not always repeated. Structures can show the parent of a compound that is named as a salt.

Assays:
[1] = tested on: gemcitabine resistant metastatic pancreatic cancer; assay: Phase 3 clinical trial of glufosfamide versus best supportive care, overall survival; format: in vivo, human; conditions: for Actual overall survival: individual diabetic patient, named GLD given orally in combination with glufosfamide 4500 mg/m^2 over 6 hours once every 3 weeks; for relative risk for overall survival in Group 1 and Group 2 patients: glufosfamide vs BSC
Protocol: Glufosfamide is a prodrug of an alkylating agent useful in the treatment of cancer. A multi-center, randomized, open-label phase 3 clinical trial was conducted to evaluate the safety and efficacy of glufosfamide in treating gemcitabine resistant metastatic pancreatic cancer as measured by overall survival compared to BSC (best supportive care). Three hundred and three patients were randomized to the trial: 148 patients were randomized to the glufosfamide arm (n=148, Group 1) and 155 to BSC (n=155, Group 2).
Patients in Group 1 were administered glufosfamide for up to 42 weeks. Glufosfamide was administered intravenously over 6 hours once every 3 weeks at 4500 mg/m^2 for up to 14 doses.
One-quarter of the dose was infused over 30 minutes and the remainder over the following five and one-half hours.
To assess the efficacy of glufosfamide treatment, patients in Group 1 and Group 2 were not administered any medication known to have antitumor effects other than glufosfamide, e.g., the patients were not administered any other chemotherapy or systemic cytotoxic/cytostatic agents. However, other appropriate supportive measures and concomitant medications not known to have antitumor effects, such as analgesics, antibiotics, transfusions, hematopoietic colony-stimulating factors (as therapy but not as prophylaxis), erythropoietin, and megestrol acetate for appetite stimulation were administered when appropriate.
Tumor assessment was performed at baseline and once every 6 weeks for the first 24 weeks and then once every 9 weeks. The primary efficacy indicator was the overall survival in Group 1 compared to that in Group 2.
Seven diabetic patients (Group 1A) having gemcitabine resistant pancreatic cancer were treated with glufosfamide for 2-11 cycles in combination with various glucose lowering drugs (GLDs) other than insulin (see Table 2 below). Glufosfamide was administered intravenously over 6 hours, once every 3 weeks, at 4500 mg/m^2. The GLD was administered orally, once every day or qd, […] prior to the first glufosfamide administration; except that, the GLD was administered to patient no. 6 three times daily or tid. […] Tumor assessment was performed at baseline and once every 6 weeks for the first 24 weeks and then once every 9 weeks. Efficacy outcomes were evaluated based on comparing the overall median survival in Group 1A with that in Group 2A. The median overall survival in the Group 1A patients was 418 days (95% CI; 85 days-643 days) compared to 84 days (95% CI; 45 days-102 days) for those in group 2A (FIG. 3).

[2] = tested on: MiaPaCa-2-RFP tumor; assay: Surgical orthotopic implantation MiaPaCa-2-RFP pancreatic tumor model in nude mice, survival; format: in vivo, NCr nu/nu mice
Protocol: A total of sixty male NCr nu/nu mice, 5-6 weeks old, were used in the study. Original breeding pairs were purchased from Taconic, Germantown, N.Y. Test animals were bred and maintained in a HEPA filtered environment for the experiment. Cages, food and bedding were autoclaved. The animal diets were obtained from PMI Nutrition International Inc. (Brentwood, Mo.).
RFP gene transduction of MiaPaCa-2 cells: For RFP gene transduction, 20% confluent MiaPaCa-2 cells (ATCC, Rockville, Md.) were incubated with a 1:1 precipitated mixture of retroviral supernatants of PT67 cells and RPMI 1640 for 72 h. Fresh medium was replenished at this time. MiaPaCa-2 cells were harvested by trypsin-EDTA 72 h posttransduction and subcultured at a ratio of 1:15 into selective medium that contained 200 μg/ml G418. The level of G418 was increased to 1000 μg/ml stepwise. The brightest MiaPaCa-2 cell clones expressing RFP were selected, combined, and then amplified and transferred by conventional culture methods.
Subcutaneous Xenografts: Tumor stocks were made by subcutaneously injecting MiaPaCa-2-RFP cells at a concentration of 5×10^6 cells/200 μl into the flank of nude mice. see e.g., Bouvet et al. Cancer Res., 2002, 62, 1534-40 incorporated herein by reference. The strong RFP expression of tumors grown in the subcutis of mice was confirmed before harvest. The tumor tissues harvested from s.c growth in nude mice were inspected, and any grossly necrotic or suspected necrotic or non-RFP tumor tissues were removed. Tumor tissues were subsequently cut into small fragments of approximately 2 mm^3. […]
Statistical methods used in efficacy evaluation: Tumor volumes and tumor weights were compared using the Student's t-test with an α=0.05. Metastatic frequency of all groups were analyzed with Fisher's exact test with an α=0.05. Comparison of animal survival time between each treatment group and untreated control was analyzed using the Log-rank analysis with an α=0.05.

COc1ccc(Cl)cc1C(=O)NCCc1ccc(S(=O)(=O)NC(=O)NC2CCCCC2)cc1 [Glibenclamide]
Actual overall survival [1]: 85 and 643

Cc1ccc(S(=O)(=O)NC(=O)NN2CC3CCCC3C2)cc1 (stereo not shown) [Gliclazide]
Actual overall survival [1]: 145 and 476+

CCC1=C(C)CN(C(=O)NCCc2ccc(S(=O)(=O)NC(=O)N[C@H]3CC[C@H](C)CC3)cc2)C1=O [Glimepiride]
Actual overall survival [1]: 54

Cc1cnc(C(=O)NCCc2ccc(S(=O)(=O)NC(=O)NC3CCCCC3)cc2)cn1 [Glipizide]
Actual overall survival [1]: 418

CN(CCOc1ccc(CC2SC(=O)NC2=O)cc1)c1ccccn1 (stereo not shown) [Rosiglitazone maleate]
Actual overall survival [1]: 479

O=P(NCCCl)(NCCCl)O[C@@H]1O[C@H](CO)[C@@H](O)[C@H](O)[C@H]1O [glufosfamide, beta-D-glucosyl-ifosfamide mustard]
median overall survival ([1]; Group 1 (n=148), glufosfamide 4500 mg/m^2 i.v. over 6 hours once every 3 weeks, all randomized patients): 105 days
median overall survival ([1]; Group 1 patients (n=123) not administered insulin prior to first glufosfamide administration): 115 days
relative risk for overall survival in Group 1 and Group 2 patients ([1]; diabetic patients receiving glucose lowering drug other than insulin, p=0.020): 0.24
relative risk for overall survival in Group 1 and Group 2 patients ([1]; proportional hazards model stratified by KPS, all patients, p=0.187): 0.848
relative risk for overall survival in Group 1 and Group 2 patients ([1]; patients not administered insulin prior, p=0.048): 0.761
benefit from the administration of glufosfamide ([1]; patients receiving a glucose lowering drug other than insulin, compared with patients not receiving such drugs): more benefit
benefit from the administration of glufosfamide ([1]; patients receiving insulin): no benefit or less benefit
median overall survival ([1]; seven diabetic Group 1 patients (Group 1A) on glufosfamide plus a glucose lowering drug other than insulin, no prior insulin): 418 days
median overall survival ([2]; glufosfamide 50 mg/kg i.v. qd x 7 alone): 26 days
median overall survival ([2]; glufosfamide 50 mg/kg i.v. qd x 7 in combination with glimepiride 12 mg/kg p.o. qd x 14, log rank p<0.01): 35 days
survival improvement compared to glufosfamide administered alone ([2]; glufosfamide 50 mg/kg in combination with glimepiride 12 mg/kg, FIG. 4): more effective in extending survival
